Literature values as cited in patent publication US20110039787A1, “COMPOSITIONS, KITS AND METHODS FOR TREATING BENIGN PROSTATE HYPERPLASIA” (priority 2009, published 2011).

Tested on: BPH
Settings: cited from earlier work

CCOc1ccccc1OCCN[C@H](C)Cc1ccc(OC)c(S(N)(=O)=O)c1 [Tamsulosin]
IPSS change (maximum of known medicinal treatments, FIG. 2) (AUA Guideline on the Management of BPH (2006), historical comparison): approximately −7.5

cetrorelix glucoronate
Maximum reduction in mean IPSS (preliminary study, European Urology 54 (2008) 170-180): −5.4 to −5.9
